Experimental findings from PMC10709440, “High-throughput ligand profile characterization in novel cell lines expressing seven heterologous insect olfactory receptors for the detection of volatile plant biomarkers” (Scientific Reports, 2023) are described below.

Assay [1] concerns the target T1, Drosophila OR10a (Drosophila melanogaster, UniProt Q9VYZ1).
T1 construct: expressed in transfected cells
T1 sequence (Q9VYZ1 1-406): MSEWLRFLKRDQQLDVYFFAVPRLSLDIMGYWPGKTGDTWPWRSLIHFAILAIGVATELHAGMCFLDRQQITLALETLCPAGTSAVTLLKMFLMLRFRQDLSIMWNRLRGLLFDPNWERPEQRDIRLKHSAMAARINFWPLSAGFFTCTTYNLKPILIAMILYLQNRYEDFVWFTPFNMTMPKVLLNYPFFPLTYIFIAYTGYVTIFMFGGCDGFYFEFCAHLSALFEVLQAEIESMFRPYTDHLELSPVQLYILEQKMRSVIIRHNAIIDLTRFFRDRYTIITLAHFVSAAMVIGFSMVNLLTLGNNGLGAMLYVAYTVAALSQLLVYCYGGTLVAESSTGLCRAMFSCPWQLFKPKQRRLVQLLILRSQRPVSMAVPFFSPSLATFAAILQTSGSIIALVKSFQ
T1 sequence (Q9VNB5 1-486 partner): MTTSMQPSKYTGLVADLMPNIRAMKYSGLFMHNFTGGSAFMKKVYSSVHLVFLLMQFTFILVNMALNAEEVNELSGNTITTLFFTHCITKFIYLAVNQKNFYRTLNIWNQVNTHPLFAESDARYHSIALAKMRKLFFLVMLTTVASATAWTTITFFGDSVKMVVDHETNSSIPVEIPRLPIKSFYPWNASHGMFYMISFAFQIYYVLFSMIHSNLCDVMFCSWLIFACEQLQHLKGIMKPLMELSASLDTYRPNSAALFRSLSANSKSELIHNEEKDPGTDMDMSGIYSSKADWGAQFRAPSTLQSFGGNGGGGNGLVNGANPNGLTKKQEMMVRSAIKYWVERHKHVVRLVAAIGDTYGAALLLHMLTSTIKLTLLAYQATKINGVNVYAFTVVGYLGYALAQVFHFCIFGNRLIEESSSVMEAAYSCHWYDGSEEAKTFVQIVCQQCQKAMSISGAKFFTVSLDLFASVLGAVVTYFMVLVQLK
The assay can be described thus: cell-based. More on the design: GCaMP6 calcium fluorescence in stable HEK293 OR+ORCO lines; peak dF normalised to 50 uM VUAA1 (=1). Conditions: HEK293; relative to 50 uM VUAA1 response; below 0.05 set to 0; read-out: % activation. As for the experimental part:
(§1) Twelve thousand to 18,000 cells were plated into each well of a black wall, transparent bottom 384-well microplate (Greiner) 48 h or 72 h before the measurements and were simultaneously treated with 1 μg/mL doxycycline. Typically, three columns were filled with one OR expressing cell line, each row was treated with the same compound (three technical replicates for each OR), and each responsive VOC-OR combination was measured at least three times on different days. The plate has 24 columns, thus we could record responses in up to eight different cell lines in each plate. On the day of the experiment, the growth medium was replaced with 20 µL assay buffer/well (140 mM NaCl, 5 mM KCl, 2 mM CaCl2, 1 mM MgCl2, 5 mM HEPES-Na, 20 mM glucose, pH 7.3, 340 mOsm). […] Baseline fluorescence (F0) was recorded for 5 s, after which 7 µL VOC buffer (140 mM NaCl, 5 mM KCl, 2 mM CaCl2, 1 mM MgCl2, 5 mM HEPES-Na, 31 mM glucose, 0.1% DMSO, pH 7.3, 340 mOsm) was injected into each well in one row and the fluorescence response was recorded for an additional 30 s, at a rate of one read/sec. VOC solutions (VOC buffer with 4× concentration of the final measured VOC concentration, 9 µL/well was injected) were measured on the same wells in a second round with the same protocol. Each individual concentration of a specific VOC sample was recorded in three wells for the same cell line on the same microplate. The raw data were exported in xls file format, F0 and FMAX values, and the fluorescence intensity changes (∆F) were calculated in Excel (Microsoft) (Supplementary file Data summary.xlsx) using the following equation: ΔF=FMAX-F0/F0 (see also Fig. 1C). On each plate, we recorded the response of each cell line to 50 µM VUAA1. The average of these ∆F values of each cell line were used to calculate the VUAA1-normalized values for the rest of the plate, by dividing VOC response ∆F values by the average VUAA1 response ∆F value of the corresponding OR cell line. Each VOC-OR combination was measured three times as tec The recorded FMAX, F0, ∆F, VUAA1-normalized ∆F values, as well as the OR name, the name of the tested sample, and the final concentration for each well were copied into supplementary file Data summary.xlsx, that was used to summarize all the plates recorded. Here, the averages of the measurements were calculated for each receptor-VOC-concentration combination. […] Each VOC was measured at 1, 10, and 100 µM final concentration on each receptor. VUAA1-normalized response was calculated as described in methods. Values are averages of at least three biological replicates for responsive combinations and two for the non-responsive combinations. The chemical structures of the strong and medium ligands are shown for each cell line. Heat map: white-green colors correspond to the lowest-highest values measured for each cell line.

Assay [2] addresses T2, Drosophila OR49b (Drosophila melanogaster, UniProt Q9V6H2).
T2 construct: expressed in transfected cells
T2 sequence (Q9V6H2 1-375): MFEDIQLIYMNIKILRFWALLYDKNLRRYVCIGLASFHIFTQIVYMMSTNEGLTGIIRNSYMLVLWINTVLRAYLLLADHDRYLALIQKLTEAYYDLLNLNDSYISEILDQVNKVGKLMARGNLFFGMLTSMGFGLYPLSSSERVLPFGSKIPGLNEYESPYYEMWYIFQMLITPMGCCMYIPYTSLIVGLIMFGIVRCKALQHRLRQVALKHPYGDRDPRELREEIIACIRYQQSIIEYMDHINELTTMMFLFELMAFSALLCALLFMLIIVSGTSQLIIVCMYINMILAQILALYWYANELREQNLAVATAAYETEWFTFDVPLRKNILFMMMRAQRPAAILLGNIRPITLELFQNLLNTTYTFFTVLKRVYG
T2 sequence (Q9VNB5 1-486 partner): T1 sequence (Q9VNB5 1-486 partner)
In words: cell-based. More on the design: GCaMP6 calcium fluorescence in stable HEK293 OR+ORCO lines; peak dF normalised to 50 uM VUAA1 (=1). The note with it: HEK293; relative to 50 uM VUAA1 response; below 0.05 set to 0; read-out: % activation. The protocol:
as §1

SMILES strings stand for the structures.

`CC/C=C/CCO` [e3-hexenol]: in assay [1], the activity at 1 µM worked out at 0%, the activity at 10 µM was determined as 0% and the activity at 100 µM is 7.4%. In assay [2], the activity at 1 µM amounted to 0%, the activity at 10 µM was determined as 0% and the activity at 100 µM came to 7.89%.
